Test [1] has as its system male Wistar rats. Kind of test: Indomethacin induced ulcer model. Conditions: for Ulcer Coefficient: Mean ± S.E. The test is classed as in vivo, rat. How it is done: Effects on acute ulcer was determined by means of water-immersion restraint stress induced ulcer model and indomethacin induced ulcer model.
Test substance 1 was orally administered to male Wistar rats (weight: 180-210 g) that had been fasted for 24 hours. In the water-immersion restraint stress induced ulcer model, 10 minutes after the oral administration of test substance 1, the rats were bound in a stress cage and immersed in water at 23° C. up to the level of their chest xiphisternums. Six hours after the immersion, the animals were killed by cervical dislocation. In the indomethacin induced ulcer model, immediately after the oral administration of test substance 1 or 2, indomethacin 10 mg/kg was orally administered. Five hours after the administration, the animals were killed by cervical dislocation. The stomachs removed from the animals were fixed with 1% formalin and then dissected along the greater curvatures. The major axis (mm) of each ulcer formed in the stomach was measured. The major axes of the ulcers in each animal were totaled, which were expressed as ulcer coefficients. Based on the ulcer coefficients of the control group and those of the groups receiving test substances, the ulcer inhibitory rates were calculated.

Test [2] relates to removed liver. The test is described as follows: Organ preservation: bile flow after 16-hour cold storage and reperfusion of rat liver. Conditions: 30 minutes after reperfusion, Mean ± S.D. The method, then: Male Wistar rats (weight: about 280 g) were anesthetized with intraperitoneal injection of pentobarbital sodium (50 mg/kg) and hepatic-portal region was exposed by abdominal midline incision. The common bile duct was cannulated and the portal stem was inserted with a 19 gauge Surflo® needle equipped with a three way stopcock. […] The liver was cut off from the tissues around it, removed outside the body and subjected to extracorporeal perfusion. The liver was subjected to a 15-minute pre-perfusion until its oxygen consumption achieved to a constant state. Then the perfusate was replaced with an organ preservative solution (University of Wisconsin solution; (U-W solution) at 4° C. Immediately after the replacement was completed, the liver connected with the three-way stopcock was removed from the perfusion cycle and the inlet was clamped. Then the liver was put in the preservative solution (U-W solution) at the same temperature and stored for 16 hours. After the 16-hour storage, the liver was reperfused with Krebs-Ringer Buffer. Thirty minutes after the reperfusion, the amount of bile flow was measured. (1) Effect of substance 2 added to the organ preservative solution (U-W solution) In the above perfusion protocol, test substance 2 at the concentration of 10 μM was added to the preservative solution (U-W solution). […]

The subject of test [3] is removed liver. The test is described as follows: Bile amount and chloride ion in bile of removed perfused rat liver. To be noted: 10 μM in Krebs-Ringer perfusate, 30 minutes, Mean ± S.E. The method, then: Male Wistar rats were used. The common bile duct of both the test and the control groups were catheterized to collect bile under pentobarbital sodium anesthesia. After the catheter was inserted and fixed in the portal vein, Krebs-Ringer solution (pH 7.4, 37° C.) comprising sodium taurocolate (30 μmol/1) saturated with 95% O2 and 5% CO2 was infused at a constant flow rate of 4.0 mL/min/g liver weight by means of peristaltic pump. The liver was removed under perfusion. For the test group, test substance 2 was added to the Krebs-Ringer solution. Thirty minutes after the perfusion, the amount of bile of both the test group and the control group was measured. Chloride ion concentration in the bile was also measured. The amount of bile at 30 minutes after the administration of test substance 2 or vehicle was shown as relative value (%) to the amount immediately before the administration.

For test [4], the system named is male Wistar rats. The test is described as follows: Taurocholic acid and trypsin induced pancreatitis, serum amylase. Conditions: 100 μg/kg subcutaneous. The test is classed as in vivo, rat. The method, then: Male Wistar rats (weight: 240-270 g) that had been fasted overnight were subjected to abdominal incision under pentobarbital sodium anesthesia. Then a mixed solution of 10% taurocholic acid 3 mL and 0.3% trypsin solution 0.3 mL was antidroicly infused from the bile duct duodenum opening to induce pancreatitis. Thirty minutes before, and 2 and 4 hours after the infusion of the mixed solution of taurocholic acid and trypsin, test substance 2 was subcutaneously administered. The control group received the vehicle. Six hours after the infusion of the mixed solution of taurocholic acid and trypsin, the blood was collected to measure the serum amylase activity.

The test system of test [5] is male Wistar rats. Kind of test: Amount of bile and chloride ion concentration in bile in rats after repeated oral dosing. To be noted: 100 μg/kg oral three times a day for seven days, Mean ± S.E. It is filed as in vivo, rat. The method, then:
Test substance 2: 13,14-dihydro-15-keto-16,16-difluoro-18(S)-methyl-prostaglandin E1, which is a ClC-2 channel opener was used. Test substance 2 of 100 μg/kg was orally administered to male Wistar rats (six weeks old, weight: 180-210 g) three times a day for seven days. The control group received the same amount of the vehicle (0.01% polysorbate 80 and 0.5% ethanol in distilled water). In the following morning of the final administration day (about 17 hours after the final administration), a polyethylene catheter (PE10, Becton Dickinson and Company) was inserted into the rats' common bile duct under ether anesthesia. The rats were placed in a Borrmann's cage and were left for 1 hour to awake from anesthesia. Bile discharged during one hour from one to two hours after the insertion of the catheter was collected to measure the amount of bile. Chloride ion concentration was measured with a chloride counter (CL-7, Hiranuma Sangyo Co., Ltd.). Student's t-test was used in comparing the control group and the group receiving test substance 2. P values less than 0.05 were considered to be statistically significant.

Test [6] deals with Beagle dogs. Kind of test: Cardiac output in dog model of cardiac incompetence. It is filed as in vivo. Conditions: 30 minutes after administration relative to immediately before, Mean ± S.E. The method, then:
Beagle dogs (weight: 8.8-10.3 kg) were used, and under thiopental sodium and α-chloralose anesthesia, their cardiac output was guided from a FJ probe equipped on the aortic arch via a rectangular wave electromagnetic blood flow meter (MFV-3100, Nihon Koden) to a blood flow-indicating unit and recorded in a recorder. The model of cardiac incompetence was prepared in accordance with the following method. A continuous infusion of lactate Ringer solution (5 mL/body/min) having dissolved therein DL-propranolol (0.06 mg/mL) from a catheter inserted into the left femoral vein started diastolic overload. Thirty minutes later, the left anterior descendence (LAD) was ligated. […] At the time the cardiac output was reduced by at least 20% from that before the diastolic overload, the dose of methoxamine was reduced to 5 μg/kg/min and the infusion of lactate Ringer solution was reduced to 3 mL/kg/min, which was continued until the completion of experiments. Sixty to 90 minutes after the cardiac output was reduced by at least 20% and other hemodynamic parameters were stabled, test substance 2 was administered via a cannula indwelled in the duodenum. The control group received a vehicle. […]

Test [7] relates to male Wistar rats. Kind of test: Mercuric chloride induced large intestinal ulcer. It is filed as in vivo, rat. Conditions: for Gross Ulcer Area: 30 min before and 2 and 6 hours after HgCl2, Mean ± S.E. How it is done:
Mercuric chloride (HgCl2) of 4 mg/kg was intramuscularly administered to male Wistar rats (weight: 245-290 g) to induce ulcer in the large intestine. Thirty minutes before, and 2 and 6 hours after the administration of HgCl2, test substance 2 was subcutaneously administered. The control group received a vehicle. Twenty-four hours after the administration of HgCl2, the animals were bled to death under ether anesthesia. After abdominal incision, the upper portion of the ileocecal opening and the upper portion of the anus were ligated, and the large intestine region from the caecum to the rectum was removed. The removed large intestine was fixed with 1% formalin and then dissected, and the major and minor axes of ulcer were measured with a caliper under a stereoscopic microscope. The product of the major axis multiplied by the minor axis was expressed as the ulcer area. Further, the total ulcer area was calculated in each animal, which was expressed as the gross ulcer area.

Marks after values point to notes of the source that are not given here.

With `CC[C@H](C)CC(F)(F)C(=O)CC[C@H]1[C@H](O)CC(=O)[C@@H]1CCCCCCC(=O)O` [Test Sub. 2, 13,14-dihydro-15-keto-16,16-difluoro-18(S)-methyl-prostaglandin E1], the “Ulcer Inhibitory Rate” value came to 58.7% in test [1] (1 μg/kg oral); 65.3% in test [1] (3 μg/kg oral); 77.2% in test [1] (10 μg/kg oral); 54.3% in test [7] (10 μg/kg subcutaneous); 85.3% in test [7] (1000 μg/kg subcutaneous). Further, the entries for the “Ulcer Coefficient” value in test [1] (1 μg/kg oral), in test [1] (3 μg/kg oral) and in test [1] (10 μg/kg oral) were 35.7 ± 8.3, 30.0 ± 4.6 and 19.7 ± 4.8, respectively. The “Amount of Bile Flow” value is reported as 2.67 ± 0.31 μL/min/g liver in test [2] (10 μM added to the perfusate during reperfusion) and 2.43 ± 0.10 μL/min/g liver in test [2] (10 μM added to the preservative solution (U-W solution)). Moreover, the “Chloride Ion Concentration in Bile” value in test [3] came out at 0.353 ± 0.009 μM/min/g liver; in test [5], 98.4 ± 1.8 mEq/L. The “Relative Amount of Bile” value in test [3] (relative to amount immediately before administration) is on record as 126.2 ± 9.0 %. The same molecule returned a serum amylase in test [4] (30 min before and 2 and 4 hours after infusion, blood at six hours, Mean ± S.E.) of 2430 ± 417 IU/L. Further, in test [4] (serum amylase), the “Inhibitory Rate” value is on record as 22.6%. The Amount of Bile in test [5] (bile collected during one hour) came out at 492 ± 36.7 µL. In addition, the “Relative Cardiac Output” value in test [6] (100 μg/kg intraduodenal) is given as 108.7 ± 0.47 %; in test [6] (300 μg/kg intraduodenal) it was 117.8 ± 2.42 %. Moreover, the “Gross Ulcer Area” value in test [7] (10 μg/kg subcutaneous) is reported as 15.2 ± 15.8 mm^2; in test [7] (1000 μg/kg subcutaneous), 3.7 ± 8.3** mm^2.
